Source: US9795570B2, “Modulation of macrophage phenotype by emodin” (University of South Carolina, priority 2016, dated 2017)

Legend:
[1] = tested on: T cells co-cultured with TCM treated macrophages; assay: Macrophage - T cell co-culture (activation and proliferation); assay type: cell-based, mouse
Description: Peritoneal macrophages were seeded into 10 cm plates and treated with EO771 conditioned medium with or without emodin for 24 h. The cells were then washed with PBS and resuspended. T cells were isolated from the spleens of C57BL/6 mice using EasySep T cell isolation kit (Stem Cell Technologies) according to the manufacturer's instructions. For the proliferation assay, T cells were labeled with CSFE and then mixed with macrophages and CD3/CD28 DYNA beads in a 1:1:1 ratio and added to 12 well plates in triplicate. For the activation assay, the T cells were collected after 24 h and stained with anti-CD3, anti-CD4, and anti-CD69 for 30 min at 4° C. The cells were then analyzed on a BD FACS flow cytometer. For the proliferation assay, T cells were collected after 72 h and stained with anti-CD3 and anti-CD4. The cells were analyzed for CSFE depletion on a Beckman Coulter FC500.

[2] = tested on: mouse peritoneal macrophages; assay: NO production assay; assay type: cell-based; details: LPS/IFNγ 24 h, emodin 0-50 μM
Description: Macrophages were stimulated with LPS+IFNγ for 24 h with various concentrations of emodin (0-50 μM). The culture media was then collected and the NO content was detected using a Nitrite/Nitrate colormetric kit (Sigma-Aldrich) according to the manufacturer's instructions. The assay was read using a Spectramax M5 microplate reader (Molecular Devices, Sunnyvale, Calif.).

[3] = tested on: NFκB p65, STAT1, IRF5, STAT6, IRF4; assay: Nuclear translocation of transcription factors (western blotting of nuclear fractions); assay type: cell-based, mouse; details: emodin 50 μM 24 h
Description: Following stimulation with IL4 or LPS+IFNγ with or without emodin for varying periods, macrophages were lysed with cell signaling lysis buffer (Millipore) for whole cell lysates. Cytoplasmic and nuclear extracts were prepared using the Epiquik Nuclear Extraction kit (Epigentek, Farmingdale, N.Y.). Total protein was separated on 4-20% Tris-glycine pre-cast gels (Pierce) and transferred onto Nitrocellulose membranes (Bio-Rad Life Science, Hercules, Calif.). The membranes were then probed with HRP conjugated secondary antibodies, and signals were detected using Pierce ECL Western Blotting Substrate (Pierce).

4T1 cells [4] = assay: Macrophage migration toward conditioned medium of emodin-treated tumor cells; assay type: cell-based, mouse; details: increasing concentrations of emodin, 24 h treatment
Description: EO771 or 4T1 cells were treated with 0-50 μM emodin for 24 h. The cells were then washed multiple times with PBS, further cultured, and TCM was collected. The TCM was placed in the bottom chamber of transwell inserts, and 2×10^5 macrophages were seeded into the top chamber in SF DMEM. The cells were incubated at 37° C. with 5% CO2 for 4 h. The membranes were then fixed with 4% paraformaldehyde for 10 min. The cells were removed from the top chamber using cotton swabs, and the cells on the bottom chamber were stained with DAPI (1 μg/mL). The inserts were then cut out, mounted onto slides, and imaged under a Nikon Eclipse E-600 fluorescence microscope (Nikon Inc. Melville, N.Y.) at 20× magnification (5 fields/insert). DAPI stained cells were quantified using ImagePro Plus software.

[5] = tested on: Peritoneal macrophages from C57Bl/6 mice; assay: Macrophages stimulated with EO771 tumor conditioned medium (qPCR, histone kit, ChIP); assay type: cell-based, mouse
Description: 4T1 cells were obtained from the American Type Culture Collection (ATCC), and EO771 cells were developed from an ER+ spontaneous mammary adenocarcinoma. The cells were maintained in culture according to standard practice. For tumor conditioned medium (TCM) collection, cells were grown until they were 80-90% confluent. Following, the medium was replaced with serum free (SF) DMEM and the cells were cultured for 48 h. The medium was then collected and passed through a 0.45 μm filter (Millipore Corp., Bedford, Mass.). The medium was concentrated 10 times using centrifuge filters with a 3,000 MW cutoff (Millipore). Before use the concentrated conditioned medium was diluted 1:2 with fresh SF DMEM.
Mice were injected with 3 mL of 4% thioglycollate solution. After 3 d, macrophages were collected by peritoneal lavage with PBS. The cells were resuspended in DMEM with 10% FBS and cultured for 2 h. The non-adherent cells were then washed away and the remaining cells were cultured overnight in SF DMEM. The cells were then treated with TCM with or without emodin.
For qPCR, cells were lysed with Qiazol, and RNA was extracted using Zymo research Direct-zol RNA isolation kit. cDNA was then made from 1 μg of RNA using iScript cDNA Synthesis Kit (Bio-Rad Life Science, Hercules, Calif.). Run conditions were 95° C. for 10 s, 58° C. for 15 s, 70° C. for 15 s. Samples were run in duplicate on a Bio-rad CFX Real Time thermocycler.
Macrophages were fixed in 1% formaldehyde. Excess formaldehyde was quenched with glycine, and the cells were collected in PBS by scraping. The cells were lysed (0.5% IGEPAL, 4 mM HEPES), and the nuclei were resuspended in nuclear lysis buffer (1% SDS, 10 mM EDTA, and 50 mM Tris, pH 8.1). The DNA was sheared by sonication using a Diagnode Bioruptor Pico (Diagenode, Denville, N.J.) for 25 cycles of 30 s on/30 s off. Then 8 μg chromatin was diluted 1:10 (0.01% SDS, 1.1% Triton X-100, 1.2 mM EDTA, 16.7 mM Tris-HCl, pH 8.1, 167 mM NaCl), and 2% of the input was removed from each sample and saved for analysis. Anti-H3K27m3 (Abcam) was added to each sample along with 20 μL of protein A+G magnetic beads (Millipore), and the samples were incubated overnight at 4° C. The beads were washed with low salt, high salt, LiCl, and TE wash buffers sequentially, and the DNA was eluted off the beads with Proteinase K at 62° C. for 2 h (elution buffer: 200 mM NaCl, 1% SDS and 50 mM Tris). The DNA was then analyzed by qPCR.
In order to detect genome wide levels of histone H3 modifications, histones were isolated from macrophages treated with TCM with or without emodin for 24 h using EpiQuik total histone extraction kits (Epigentek, Farmingdale, N.Y.) according to the manufacturer's instructions. Histones (100 ng) were then analyzed using an EpiQuik Histone H3 modification kits (EpiGentek) according to the manufacturer's instructions.

4T1 cells [6] = assay: Proliferation, Ki67 staining; assay type: cell-based, mouse; details: 24 h
Description: For Ki67 staining, 4T1 and EO771 tumor cells were seeded into 6 well plates and cultured in SF DMEM overnight. They were then treated with various concentrations of emodin (0-50 μM) for 24 h. The cells were resuspended with trypsin plus EDTA and fixed with 1% paraformaldehyde. The cells were then permeabilized with 0.25% Triton X-100 and stained with anti-Ki67 […] (Abcam). The cells were washed and incubated with goat anti-rabbit Alexa 488 (Invitrogen, Eugene, Oreg.). After washing, the samples were analyzed by flow cytometry using a BD FACS flow cytometer and CXP software version 2.2. Data were collected for 10,000 live events per sample.

Compound: Cc1cc(O)c2c(c1)C(=O)c1cc(O)cc(O)c1C2=O [emodin]
- T cell proliferation (CSFE depletion) ([1]; TCM and emodin co-treated macrophages, 72 h): restored T cell proliferation
- suppression of T cell activation (CD69 on CD4 T cells) by TCM treated macrophages ([1]; macrophages pre-treated with emodin along with TCM 24 h, co-culture 24 h): completely blocked the suppression
- NO production [2]: dose dependently inhibited
- STAT6 nuclear translocation ([3]; IL4 stimulation): drastically inhibit
- nuclear IRF4 ([3]; IL4 stimulation): inhibited
- NFκB p65 nuclear translocation ([3]; LPS/IFNγ stimulation): drastically inhibit
- STAT1 and IRF5 nuclear translocation ([3]; LPS/IFNγ stimulation): inhibited
- macrophage migration toward TCM from emodin-treated tumor cells (4T1 cells [4]): decrease in macrophage migration
- TCM-decreased H3K27m3 on the promoters of IRF4, Arg1, and C/EBPβ ([5]; ChIP assay): reversed the reduction
- TCM-increased expression of ICAM1 ([5]; EO771 TCM, 24 h, qPCR): dose dependently blocked
- TCM-induced expression of Arg1, C/EBPβ and IRF4 ([5]; EO771 TCM, 24 h, qPCR): dose-dependently inhibited
- expression of CSFr1 ([5]; EO771 TCM, 24 h, qPCR): decreased the expression
- expression of MMP2 and MMP9 ([5]; EO771 TCM, 24 h, qPCR): inhibited expression
- TCM-increased expression of JMJD3 ([5]; EO771 TCM, emodin 25 μM or 50 μM, 24 h): significantly attenuated
- global levels of H3K27 methylation ([5]; EpiQuik histone modification kit): no effects
- concentrations with no significant effect on cell proliferation (4T1 cells [6]): less than 50 μM
